Converted amounts (≈) assume the structure as drawn.
How the values were obtained:
[1] = test system: 13 MRSA strains, clinically isolated; assay: Minimal inhibitory concentration (MIC>90) in MH II medium; type: cell-based, methicillin-resistant Staphylococcus aureus
Method: (§1) The MIC (minimal inhibitory concentration) against VRE and MRSA was measured to test antibiotic activity of Macrolactin A produced by Bacillus polyfermenticus KJS-2, which is the strain of the present invention, against the two strains. The strains used for the experiment were 11 VRE strains and 13 MRSA strains, which were clinically isolated. Each strain used for the experiment was cultured in MH II medium at 200 rpm for 6 hours at 37° C., the absorbance of the medium measured at OD600nm using a UV detector, and then 1 ml aliquot of the medium was spread over MH II agar medium and incubated for 16 hours at 37° C. The number of colonies formed on the agar medium after 16 hours of incubation was counted. Each strain used for experiment was cultured in MH II medium at 200 rpm for 6 hours at 37° C., and the absorbance of the medium was measured at OD600nm using a UV detector. The number of cells were calculated based on the ratio of the number of colonies to the absorbance of the medium, and measured by the above process. Each culture medium was diluted to the final cell concentration of 0.25*10^7 cfu/ml and Macrolactin A was dissolved in the solvent DMSO, while ampicillin, teycoplanin, vancomycin and methillin were dissolved in water. To measure the MIC of Macrolactin A or of the four antibiotics, the mixture of the materials listed in Table 5 and Macrolactin A or the mixture of the materials listed in Table 6 and each of the four antibiotics, respectively in a 500 μl eppendorff tub, was incubated at 200 rpm for 16 hours at 37° C., and then absorbance was measured by a UV/Visible Light detector at 600 nm using a Fluorescence Multi-Detection Reader.

[2] = test system: vancomycin-resistant enterococci (VRE); details: cited from earlier work
[3] = test system: 11 VRE strains, clinically isolated; assay: Minimal inhibitory concentration (MIC>90) in MH II medium; type: cell-based, vancomycin-resistant enterococci
Method: as §1

CC1CCC/C=C/C=C/C(O)CC(O)C/C=C\C=C\C(O)C/C=C/C=C\C(=O)O1 (centres unmarked) [Macrolactin A]
activity relative to teycoplanin (average MIC>90) ([1]; 13 MRSA strains): 5.3 times
average MIC>90 ([1]; Average of the 13 MRSA strains): 19.83 µg/mL
MIC>90 ([1]; MRSA1): 31.25 µg/mL (≈ 77.6 µM)
MIC>90 ([1]; MRSA2): 15.63 µg/mL (≈ 38.8 µM)
MIC>90 ([1]; MRSA3): 15.63 µg/mL (≈ 38.8 µM)
MIC>90 ([1]; MRSA4): 31.25 µg/mL (≈ 77.6 µM)
MIC>90 ([1]; MRSA5): 31.25 µg/mL (≈ 77.6 µM)
MIC>90 ([1]; MRSA6): 31.25 µg/mL (≈ 77.6 µM)
MIC>90 ([1]; MRSA7): 15.63 µg/mL (≈ 38.8 µM)
MIC>90 ([1]; MRSA8): 7.81 µg/mL (≈ 19.4 µM)
MIC>90 ([1]; MRSA8*): 15.63 µg/mL (≈ 38.8 µM)
MIC>90 ([1]; MRSA9): 15.63 µg/mL (≈ 38.8 µM)
MIC>90 ([1]; MRSA10): 15.63 µg/mL (≈ 38.8 µM)
MIC>90 ([1]; MRSA11): 15.63 µg/mL (≈ 38.8 µM)
MIC>90 ([1]; MRSA11*): 15.63 µg/mL (≈ 38.8 µM)
antibiotic activity against VRE [2]: antibiotic activity only against MRSA
activity relative to teycoplanin (average MIC>90) ([3]; 11 VRE strains): 4 times
average MIC>90 ([3]; Average of the 11 VRE strains): 31.25 µg/mL
MIC>90 ([3]; VRE1): 31.25 µg/mL (≈ 77.6 µM)
MIC>90 ([3]; VRE2): 31.25 µg/mL (≈ 77.6 µM)
MIC>90 ([3]; VRE3): 31.25 µg/mL (≈ 77.6 µM)
MIC>90 ([3]; VRE4): 31.25 µg/mL (≈ 77.6 µM)
MIC>90 ([3]; VRE5): 15.63 µg/mL (≈ 38.8 µM)
MIC>90 ([3]; VRE6): 31.25 µg/mL (≈ 77.6 µM)
MIC>90 ([3]; VRE7): 31.25 µg/mL (≈ 77.6 µM)
MIC>90 ([3]; VRE9): 31.25 µg/mL (≈ 77.6 µM)
MIC>90 ([3]; VRE10): 31.25 µg/mL (≈ 77.6 µM)
MIC>90 ([3]; VRE914): 62.5 µg/mL (≈ 155 µM)
MIC>90 ([3]; VRE915): 15.63 µg/mL (≈ 38.8 µM)

— patent US20100087516A1, “ANTIBACTERIAL MACROLACTIN A THAT BACILLUS POLYFERMENTICUS KJS-2 PRODUCED IN” (priority 2007, published 2010)
